Test results reported in patent publication US20230321278A1, “AAV VECTOR DELIVERY SYSTEMS” (President and Fellows of Harvard College, priority 2020, published 2023).
Entries after “also recorded” stand apart in the source; their conditions may differ.

Tests used:
sympathetic nerve = test: Sympathetic nerve ablation by intradermal injection of 6-OHDA; type: in vivo, mice
From the text: The sympathetic nervous system is constantly active at a basal level to maintain body physiology. To explore if basal sympathetic nerve activity affects the other two cell types in this nerve-APM-HFSC tri-lineage unit, the sympathetic nerve in telogen skin was ablated through intradermal injection of 6-hydroxydopamine (6-OHDA, a selective neurotoxin for sympathetic nerves) (Kostrzewa and Jacobowitz, 1974), when HFSCs are quiescent. […] By P30, hair follicles reached full anagen throughout the control back skin, whereas hair follicles in the sympathectomized skin remained mostly in telogen (FIG. 1C). […]
Chemical ablation: 6-Hydroxydopamine hydrobromide (6-OHDA, Sigma 162957) solution was prepared freshly by dissolving 6-OHDA in 0.1% ascorbic acid (in 0.9% sterile NaCl) for intradermal injection. […] Skin was analyzed one week after ablation.
(§1) H&E stained sections were used for analysis. For quantification, anagen II and anagen III were considered as early anagen, anagen IV was mid anagen, and anagen V and anagen VI were full anagen. Hair cycle stages were determined using previously described criteria (Muller-Rover et al., 2001). Ten to twenty hair follicles were individually assessed and staged in each animal, and at least 4 different animals were used per condition. […] The percent of dorsal skin in anagen was quantified using Fiji. […]

HFSCs = test: Adrenergic agonist topical application, anagen entry; type: in vivo, mice; details: 10 mg/kg body weight once a day for 10 days, extended 2nd telogen
From the text: Next, the impact of elevated sympathetic tone on HFSC activation was explored. Sympathetic nerve terminals secrete the neurotransmitter norepinephrine, which binds to adrenergic receptors on target cells. To elevate the sympathetic tone, isoproterenol, a pan-adrenergic receptor agonist, was topically applied at the extended 2nd telogen. […] Loss of sympathetic nerve innervations makes HFSCs more dormant, whereas elevated sympathetic tone promotes HFSC activation.
as §1, with “The effects of cold exposure and adrenergic agonist treatment (isoproterenol and procaterol) on anagen entry were quantified by monitoring the change of hair regrowth as previously described (Fan et al., 2018; Sheen et al., 2015). The” for “The”

human HFSCs = test: Colony formation assay (CFA); type: cell-based; details: 0.1 μM procaterol
Experimental: Human hair follicles were isolated from normal scalp tissues. To isolate hair follicle stem cells (HFSCs), hair follicles were dissected, and subcutaneous fat and connective tissues were carefully removed with a scalpel. The lower hair bulb and upper epithelial layer were removed as previously described (Oshima et al., 2001; Rochat et al., 1994). For HFSC isolation, hair follicles were incubated in 1.25 U/mL dispase (Gibco) and 0.5 mg/mL collagenase I (Sigma-Aldrich) solution at 37° C. for 30 minutes, following which the mesenchymal sheath was carefully removed with forceps. To obtain a single cell HFSC suspension, tissue was digested with 0.05% trypsin/EDTA solution (Gibco) for 1 h at 37° C., and cells were filtered through a sterile 40[…] cell strainer (BD Biosciences). Single cell suspensions were then centrifuged at 1300 rpm for 10 minutes and plated on mitomycin C (Cayman) treated J2 feeders at a cell density of 5000 cells/well in a 12-well culture plate (Falcon) in E media supplemented with EGF and additives as described in (Mou et al., 2016; Nowak and Fuchs, 2009). After 48 hours, 0.1 μM procaterol (Sigma) was added (freshly prepared). Medium was changed every 2 days. On day 10, plates were fixed with 4% PFA and stained with Rhodamine B (Sigma). […] CFA quantification was done using Fiji.

In the case of `NCCc1cc(O)c(O)cc1O` [6-OHDA, 6-hydroxydopamine], the “ablation of the sympathetic nerve in skin” value (sympathetic nerve; intradermal injection, telogen skin) is reported as “ablated the sympathetic nerve efficiently” and the “HFSC activation and anagen entry” value (sympathetic nerve; sympathectomy by intradermal 6-OHDA) is reported as “substantial delay in HFSC activation and anagen entry”.

With `CC(C)NCC(O)c1ccc(O)c(O)c1` (centres unmarked) [isoproterenol] the “anagen entry (back skin hair regrowth)” value (HFSCs) was “entered anagen earlier; also recorded: precocious anagen entry”.

With `CCC(NC(C)C)C(O)c1ccc(O)c2[nH]c(=O)ccc12` (centres unmarked) [procaterol] the “anagen entry (back skin hair regrowth)” value (HFSCs) was “accelerated anagen entry; also recorded: premature anagen entry” and the “growth of cultured human HFSCs (area covered by colonies)” value (human HFSCs) was “promoted their growth”.
